From patent publication US11147796B2, “Agent for preventing or ameliorating hearing impairment” (Tohoku University, priority 2017, dated 2021)

How the values were obtained:
“m.1555A>G mutant” cells [1] = assay: Amount of ATP production in cells derived from hearing loss patients; type: cell-based, human; conditions: compound 10 μM, 12 hours
Protocol: (§1) In the following Examples 2, 3, and 5, “m.1555A>G mutant” cells were obtained by skin reproductive to a patient having “m.1555A>G mutation” to obtain dermal fibroblasts, then 10% Primary culture was carried out in DMEM (low glucose) culture solution (manufactured by Nacalai Tesque, Inc) containing FBS (Fetal bovine serum) under the condition of 5% CO2/20% O2, at 37° C. and isolated. In the following Examples 4 and 5, the inner ear culture was carried out in DMEM (high glucose) culture medium containing 10% FBS (Fetal bovine serum) under the condition of 5% CO2/20% O2, at 37° C.
[1] Three thousand “m.1555A>G mutant” cells were seeded per well in a 96-well cell culture plate and cultured for 24 hours.
[2] Compound #5 synthesized in Example 1 was mixed into the culture solution to be 10 μM and cultured for 12 hours (compound-treated group). As a control, “m.1555A>G mutant” cells were cultured in a culture medium in the absence of compound #5 (control group) or in a culture medium containing 0.01% DMSO (DMSO-treated group) for 12 hours. The concentration of ATP in the culture solution was measured with “cellular” ATP assay reagent (manufactured by Toyo Binet).

inner hair cells = assay: Survival rate of inner hair cells in cultured inner ear with cisplatin; type: cell-based, C57BL/6J mouse; conditions: 48 hours
Protocol: as §1
[1] The inner ear of C57BL/6J mouse (hereinafter referred to as “P3 mouse”) on the third day after birth was isolated and cultured in a culture solution for 24 hours.
[2] […] Thereafter, washing with TBS (TBST) solution containing 0.3% Triton X-100 for 5 minutes was repeated twice, followed by taking photograph with a fluorescence microscope (BZ-9000, manufactured by Keyence) and observed using BZ-H1 software (manufactured by Keyence). From the obtained image, the number of cells and the number of damaged cells, each of which has a shape of 200 μm each corresponding to each part of the apex turn, the media turn, and the basilar turn, were measured and 3 parts of the cochlea (apex, media, basilar) were calculated from the survival rate (%) of the outer hair cells and the inner hair cells. […]

“m.1555A>G mutant” cells [2] = assay: Cell survival level (MTT assay) of cisplatin- or gentamicin-treated cells; type: cell-based, human; conditions: 24 hours; for reduction of the cell survival level by gentamicin: gentamicin 2000 μM
Protocol: as §1
(§2) [1] 2000 cells of “m.1555A>G mutant” cells were plated per well in a 96-well cell culture plate and cultured for 24 hours.
[2] Cisplatin (manufactured by Yakult Corporation) or gentamicin (manufactured by Nacalai Tesque, Inc.) was mixed into the culture solution to be 100 μM and 2000 μM, respectively, and the compound #5 synthesized in Example 1 was mixed with various concentrations (1 and 10 μM), and cultured for 24 hours (cisplatin-treated group and gentamicin-treated group). As a control, “m.1555A>G mutant” cells were cultured in the absence of cisplatin (control group) or cisplatin-treated group in the absence of compound #5 (DMSO was added to 0.01%) for 24 hours. Cell survival level was measured by MTT assay using Cell Counting Kit-8 (manufactured by Dojindo laboratories). Specifically, 100 μL of Cell Count Reagent SF was added to each well, followed by incubation for 2 hours, and then stirred with a microplate reader for 3 seconds. Then the absorbance with 450 nm (reference 750 nm) was measured.

inner ear cells = assay: Amount of ATP production in cultured inner ear; type: cell-based, mouse; conditions: compound 10 μM; 3 hour results
Protocol: as §1
[1] The inner ear of P3 mice was isolated and cultured in culture solution for 24 hours.
[2] The compound #5 synthesized in Example 1 was mixed in the culture solution to be 10 μM and cultured for various times (3 hours, 6 hours, and 12 hours). […] [3] The concentration of ATP in the culture solution was measured with “cellular” ATP assay reagent (manufactured by Toyo Binet).

“m.1555A>G mutant” cells [3] = assay: Cytotoxicity level (extracellular LDH activity) of BSO-treated cells; type: cell-based, human; conditions: BSO 100 μM, 48 hours
Protocol: as §1, §2
[2] Glutathione synthesis inhibitor BSO (L-Buthionine sulphoximine) (manufactured by Sigma-Aldrich) was mixed in the culture solution to be 100 μM and cultured for 24 hours (BSO-treated group). As a control, “m.1555A>G mutant” cells were cultured for 24 hours in the absence of BSO (control treatment group). For the BSO-treated group, the compound #5 synthesized in Example 1 was mixed into the culture solution so as to be at various concentrations (0.3, 1, 3, 10, and 30 μM) and cultured for 48 hours (N=4). As a control, the cells were cultured in the absence of compound #5 (DMSO was added so as to be 0.01%.). Cell survival level was measured by MTT assay using Cell Counting Kit-8 (manufactured by Dojindo Laboratories). That is, 100 μL of Cell Count Reagent SF was added to each well, incubated for 2 hours, and after 3 seconds of stirring with a microplate reader, the absorbance was measured at 450 nm (reference 750 nm). In addition, the level of cytotoxicity was detected by measuring lactate dehydrogenase (LDH) activity released extracellularly using Cytotoxicity LDH Assay Kit-WST (manufactured by Dojindo Laboratories). That is, 100 μL each of Working Solution prepared in each well was added, incubated for 30 minutes, Stop Solution was added in 50 μL each, and after stirring for 3 seconds with a microplate reader, the absorbance was measured at 490 nm (reference 750 nm).

[4] = system: skin cells derived from hearing loss patients attributable to other inherited diseases; assay: Amount of ATP production in skin cells of patients with other inherited diseases; type: cell-based, human; conditions: POU4F3 gene mutation, MELAS [m.3243A>G mutation], Alport syndrome

## O=C(CC(C(=O)O)c1c[nH]c2ccccc12)c1ccc(F)cc1F (centres unmarked) [compound #5, 4-(2,4-Difluorophenyl)-2-(1H-indol-3-yl)-4-oxo-butanoic Acid]
“m.1555A>G mutant” cells [1]
  amount of ATP production: increases
Inner hair cells; cisplatin 10 μM, compound 0, 1, 5, 10, 50 μM
  survival rate of the inner hair cells: almost no change in survival rate
Inner hair cells; compound 10 μM, cisplatin 0, 5, 7.5, 10, 15, 20 μM, vs DMSO-treated group
  survival rate of the inner hair cells: hardly any difference
“m.1555A>G mutant” cells [2]; cisplatin 100 μM, compound 1 to 10 μM
  decrease in cell survival level due to cisplatin treatment: significantly suppressed
“m.1555A>G mutant” cells [2]; compound 10 μM
  reduction of the cell survival level by gentamicin: significantly suppressed
“m.1555A>G mutant” cells [2]; compound at least 1 μM
  reduction of the cell survival level by gentamicin: suppressed
Inner ear cells
  amount of ATP production: increases
“m.1555A>G mutant” cells [3]; compound 3 μM, vs BSO-treated DMSO
  increase in the level of cytotoxicity: a significant difference was observed
“m.1555A>G mutant” cells [3]; compound at least 0.3 μM
  increase in the level of cytotoxicity: suppressed
“m.1555A>G mutant” cells [3]; compound at least 1 μM
  increase in the level of cytotoxicity: reduced to a level almost unchanged from that of the control group
[4]
  amount of ATP production: confirmed
